According to patent publication US12246068B2, “Enzymatically activatable peptide-redox modulator conjugates and use thereof” (BRANDEIS UNIVERSITY, priority 2017, dated 2025):
Where a SMILES comes first, the peptide text is derived from it. [ ]: non-standard residue; d: D form. The star is where a group is joined. X1 = O=C(CCC[P+](c1ccccc1)(c1ccccc1)c1ccccc1)*; d(pY) = N[C@H](Cc1ccc(OP(=O)(O)O)cc1)C(=O)O; pY = N[C@@H](Cc1ccc(OP(=O)(O)O)cc1)C(=O)O; NBD = O=[N+]([O-])c1ccc(*)c2nonc12; Cbz = O=C(OCc1ccccc1)*; βAla = NCCC(=O)O; CH2F = FC*

Tests used:
selected Saos2 cell line = experiment: MTT assay on selected Saos2 cells after five weeks stimulation; assay type: cell-based, human
Method: (§1) For the MTT Assay, all cells were seeded in a 96-well plate with the density of 1*10^4 cells per-well (total medium volume of 100 μL). 24 hours post seeding, the solutions with a serial of concentrations (5 concentrations) of different precursors were added to each well. Cells without the treatment of the precursors were used as the control. At designated time (24/48/72 hours), 10 μL MTT solution (5 mg/mL) was added to each well and incubated at 37° C. for another 4 h, and then 100 μL of SDS-HCl solution was added to stop the reduction reaction and dissolve the purple formazan. The absorbance of each well at 595 nm was measured by a multimode microplate reader. The cytotoxicity assay was performed three times and the average value of the three measurements was taken.
Based on the above mechanism of cell death showing that L-1P (or D-1P) activates multiple death signaling pathways, it is believed that cancer cells unlikely would be able to evolve resistance toward this multiple targeting strategy. […] Such a plasticity should minimize the path to drug resistance. […]

ALP = ALP catalyzed dephosphorylation of the precursors; assay type: biochemical; conditions: alkaline phosphatase (ALP), isolated enzyme; substrate 0.1 wt %, ALP 0.1 U/mL, 37° C.; read-out: t1/2 of ALP catalyzed dephosphorylation (converted)
Method: After obtaining all the precursors in Example 1, their behaviors were evaluated for EISA in vitro by using TEM and static light scattering (SLS) to examine the nanostructures formed before and after the addition of ALP into the solutions of the precursors. […] As a contrast, D-1P (50 μM) forms slightly more regular fibrous structures with diameter of 8±2 nm, which then interact with each other to form dense 2D/3D networks. […] After 24 h, the percentages of enzymatic dephosphorylation of D-1P and L-1P are about 90% and 80%, respectively. […] After being formed by dephosphorylation, L-1 and D-1 form different nanostructures. […] Similar to L-1, D-1 forms aggregated hollow colloids with a larger mean diameter (106±2 nm) and slightly thicker layers (thickness of 6±2 nm). L-2P or D-2P (50 μM) forms amorphous aggregates after dissolving in PBS buffer (pH=7.4) (FIG. 5). While the addition of ALP converts L-2P to L-2 to form uniform nanofibers with diameter of 9±2 nm, the enzymatic conversion of D-2P to D-2 results in nanoscale aggregates with diameter of 16±2 nm. […] As a charged, steric-hindered motif being connected to the peptide backbone via a relatively flexible linker, TPP disrupts intermolecular packing to disfavor the formation of long nanofibers, but it promotes interparticle interaction to favor polymorphic aggregates before and after enzymatic dephosphorylation. […]

Saos2 cells = experiment: MTT cell viability assay, Saos2; assay type: cell-based, human; conditions: for IC50 against Saos2 cells / IC50: unstimulated Saos2; for IC50: read-out: IC50 against Saos2 cells; for cytotoxicity against Saos2 cell: even at 500 μM; for cytotoxicity to Saos2 cells: formed from the precursor by exogenous ALP, concentrations up to 200 μM
Method: (§2) Saos2, HeLa, HepG2, T98G, MCF-7 and HS-5 cells were purchased from American-type Culture Collection (ATCC, USA). Saos2 cells were cultured in Macyo's 5A medium supplemented with 15% v/v fetal bovine serum, 100 U/mL penicillin and 100 μg/mL streptomycin. HeLa, HepG2, T98G, MCF-7 cells were cultured in MEM Medium supplemented with 10% v/v fetal bovine serum, HS-5 cells were cultured in Dulbecco's Modified Eagle's medium (DMEM) supplemented with 10% v fetal bovine serum (FBS), 100 U/mL penicillin and 100 μg/mL streptomycin. All cells were cultured at 37° C. in a humidified atmosphere of 5% CO2.
as §1
To investigate the cellular response to all the precursors, an MTT (3-(4,5-dimethylthiazol-2-yl)-2,5-diphenyl tetrazolium bromide) assay (Gerlier et al., J. Immunol. Methods 94:57 (1986), which is hereby incorporated by reference in its entirety) was first used to examine the viability of human osteosarcoma cells (Saos2, which expresses high level ALP (Farley et al., Metabolism 40:664 (1991), which is hereby incorporated by reference in its entirety)) cultured with the precursors. As a control, the viability of normal human bone marrow stromal cells (HS5) that express low level of ALP on cell surface was also examined (Zhou et al., Chem 1:246 (2016), which is hereby incorporated by reference in its entirety). […] In the presence of exogenous ALP, L-1P (or D-1P) turns into L-1 (or D-1), which is innocuous to Saos2 cells at the concentrations up to 200 μM. […] To investigate the retention of L-1 (or D-1) in the Saos2 cells, the cells were incubated with L-1P (D-1P, 50 μM) for different times. […] On the contrary, the concentration of D-1 decreases little after 6 h incubation. Moreover, the intracellular concentration of D-1 is 3.5 fold of that of L-1 at 6 h incubation, but the ratio increases to 10 fold at 24 h incubation (FIG. 8B).
Three kinds of established ALP inhibitors were used: L-phenylalanine (L-Phe) (Borgers, M. J., Histochem. Cytochem. 21:812 (1973), which is hereby incorporated by reference in its entirety), an efficient uncompetitive inhibitor of placental alkaline phosphatase (PLAP) levamisole, a well-known uncompetitive inhibitor of tissue-nonspecific alkaline phosphatase (TNAP) (Borgers, M. J., Histochem. Cytochem. 21:812 (1973), which is hereby incorporated by reference in its entirety) and CinnGEL 2Me (Zhu et al., Cancer Res. 67:10129 (2007), which is hereby incorporated by reference in its entirety), an inhibitor of protein tyrosine phosphatase (PTP1B) that localizes at the cytoplasmic face of the endoplasmic reticulum. […] Moreover, the PTP1B inhibitor (i.e., CinnGEL 2Me) is unable to rescue the cells, supporting the mechanism in FIG. 1 that EISA on the cell surface is the key processes for converting L-1P and D-1P to L-1 and D-1, respectively. To further confirm the role of ALPs on cell surface, the precursors were incubated together with ALP, which serves as an exogenous enzyme. The addition of ALP almost eliminates the cytotoxicity of the precursors. […]

HS5 cells = experiment: MTT cell viability assay, HS5; assay type: cell-based, human; conditions: 100 μM
Method: as §2
as §1, with “taken. […]” for “taken.”

[1] = test system: T1, L-1P (NBD-βA-FFpYK, L enantiomer, with TPP on the ε-amino group of lysine)
T1 sequence: XFFXK

[2] = test system: T2, D-1P (NBD-βA-FFpYK, D enantiomer, with TPP on the ε-amino group of lysine)
T2 sequence: XFFXK

[3] = test system: T3, L-2P (NBD-βA-FFpYK, L enantiomer, with acetyl on the ε-amine of lysine)
T3 sequence: XFFXK

[4] = test system: T4, D-2P (NBD-βA-FFpYK, D enantiomer, with acetyl on the ε-amine of lysine)
T4 sequence: XFFXK

[5] = 100 μM, 48 h, with levamisole (1 mM)
[6] = 100 μM, 48 h, without inhibitor
[7] = 200 μM, 48 h, with levamisole (1 mM)
[8] = 200 μM, 48 h, without inhibitor
[9] = co-incubated with the targeting motif TPP (3), 48 h

Molecule: O=C(CCC[P+](c1ccccc1)(c1ccccc1)c1ccccc1)NCCCC[C@@H](NC(=O)[C@@H](Cc1ccc(OP(=O)(O)O)cc1)NC(=O)[C@@H](Cc1ccccc1)NC(=O)[C@@H](Cc1ccccc1)NC(=O)CCNc1ccc([N+](=O)[O-])c2nonc12)C(=O)O [D-1P] ({NBD-βAla}-[dF][dF][d(pY)][dK](X1)-OH)
- IC50 (selected Saos2 cell line; cells selected by five weeks stimulation of D-1P (10 to 50 μM), read-out: IC50 against Saos2 cells after five weeks stimulation): 35.2 µM
- half-life at 0.1 wt % (ALP): 33 min
- cell viability of Saos2 cells (Saos2 cells; [5]): 66.0%
- cell viability of Saos2 cells (Saos2 cells; [6]): 11.5%
- cell viability of Saos2 cells (Saos2 cells; [7]): 53.3%
- cell viability of Saos2 cells (Saos2 cells; [8]): 1.8%
- IC50 against Saos2 cells (Saos2 cells; 48 h): 57.4 ± 2.5 µg/mL
- IC50 (Saos2 cells; 48 h): 46 ± 2 µM
- cytotoxicity against HS5 cells (HS5 cells): almost innocuous

Molecule: COC(=O)C[C@H](NC(=O)[C@H](C)NC(=O)[C@@H](NC(=O)OCc1ccccc1)C(C)C)C(=O)CF [zVAD-fmk, reference compound] (Cbz-Val-Ala-Asp(OMe)-CH2F)
- toxicity on Saos2 cells (Saos2 cells; 45 μM, by itself): no toxicity

Molecule: CC(=O)NCCCC[C@H](NC(=O)[C@H](Cc1ccc(OP(=O)(O)O)cc1)NC(=O)[C@H](Cc1ccccc1)NC(=O)[C@H](Cc1ccccc1)NC(=O)CCNc1ccc([N+](=O)[O-])c2nonc12)C(=O)O [L-2P] ({NBD-βAla}-FF[pY]K(Ac)-OH)
- cytotoxicity against Saos2 cell (Saos2 cells; by itself, 48 h): hardly exhibits cytotoxicity
- cytotoxicity against Saos2 cell (Saos2 cells; [9]): hardly exhibits cytotoxicity

Molecule: O=C(CCC[P+](c1ccccc1)(c1ccccc1)c1ccccc1)NCCCC[C@@H](NC(=O)[C@@H](Cc1ccc(O)cc1)NC(=O)[C@@H](Cc1ccccc1)NC(=O)[C@@H](Cc1ccccc1)NC(=O)CCNc1ccc([N+](=O)[O-])c2nonc12)C(=O)O [D-1] ({NBD-βAla}-[dF][dF][dY][dK](X1)-OH)
- cytotoxicity to Saos2 cells (Saos2 cells): innocuous

Molecule: O=C(CCC[P+](c1ccccc1)(c1ccccc1)c1ccccc1)NCCCC[C@H](NC(=O)[C@H](Cc1ccc(OP(=O)(O)O)cc1)NC(=O)[C@H](Cc1ccccc1)NC(=O)[C@H](Cc1ccccc1)NC(=O)CCNc1ccc([N+](=O)[O-])c2nonc12)C(=O)O [L-1P] ({NBD-βAla}-FF[pY]K(X1)-OH)
- cell viability of the selected cells (selected Saos2 cell line; 50 μM, 48 h, after five weeks stimulation): 20.5%
- half-life at 0.1 wt % (ALP): 68.4 min
- cell viability of unstimulated Saos2 (Saos2 cells; 50 μM, 48 h): 71.7%
- cell viability of Saos2 cells (Saos2 cells; [5]): 65.3%
- cell viability of Saos2 cells (Saos2 cells; [6]): 21.6%
- cell viability of Saos2 cells (Saos2 cells; [7]): 50.5%
- cell viability of Saos2 cells (Saos2 cells; [8]): 2.1%
- IC50 against Saos2 cells (Saos2 cells; 48 h): 76.1 ± 2.5 µg/mL
- IC50 (Saos2 cells; 48 h): 61 ± 2 µM
- cytotoxicity against HS5 cells (HS5 cells): almost innocuous

Molecule: CC(=O)NCCCC[C@@H](NC(=O)[C@@H](Cc1ccc(OP(=O)(O)O)cc1)NC(=O)[C@@H](Cc1ccccc1)NC(=O)[C@@H](Cc1ccccc1)NC(=O)CCNc1ccc([N+](=O)[O-])c2nonc12)C(=O)O [D-2P] ({NBD-βAla}-[dF][dF][d(pY)][dK](Ac)-OH)
- cytotoxicity against Saos2 cell (Saos2 cells; by itself, 48 h): hardly exhibits cytotoxicity
- cytotoxicity against Saos2 cell (Saos2 cells; [9]): hardly exhibits cytotoxicity

Molecule: O=C(CCC[P+](c1ccccc1)(c1ccccc1)c1ccccc1)NCCCC[C@H](NC(=O)[C@H](Cc1ccc(O)cc1)NC(=O)[C@H](Cc1ccccc1)NC(=O)[C@H](Cc1ccccc1)NC(=O)CCNc1ccc([N+](=O)[O-])c2nonc12)C(=O)O [L-1] ({NBD-βAla}-FFYK(X1)-OH)
- cytotoxicity to Saos2 cells (Saos2 cells): innocuous

Molecule: alkaline phosphatase
- percentage of enzymatic dephosphorylation after 24 h [1]: the percentages of enzymatic dephosphorylation of D-1P and L-1P are about 90% and 80%, respectively
- t1/2 of ALP catalyzed dephosphorylation (substrate 0.1 wt %, ALP 0.1 U/mL) [1]: The t1/2 was determined to be 0.55 h and 1.14 h for D-1P and L-1P, respectively
- percentage of enzymatic dephosphorylation after 24 h [2]: the percentages of enzymatic dephosphorylation of D-1P and L-1P are about 90% and 80%, respectively
- t1/2 of ALP catalyzed dephosphorylation (substrate 0.1 wt %, ALP 0.1 U/mL) [2]: The t1/2 was determined to be 0.55 h and 1.14 h for D-1P and L-1P, respectively
- enzymatic conversion (dephosphorylation) seen by TEM [3]: the addition of ALP converts L-2P to L-2 to form uniform nanofibers
- enzymatic conversion (dephosphorylation) seen by TEM [4]: the enzymatic conversion of D-2P to D-2 results in nanoscale aggregates
